The source of these data is DBAASP.

Among the test systems are Clostridium septicum; Bacteroides fragilis; Cutibacterium acnes; Fusobacterium nucleatum; Streptococcus iniae; Vibrio parahaemolyticus; Vibrio alginolyticus; Lactococcus garvieae; Vibrio harveyi.
Holding throughout (experiment): ≥ marks a high value that may be exact or a test limit, other limits are often not marked, values filed in µg/mL are converted to µM
Test [1] concerns Batrachochytrium dendrobatidis.
Test [2] concerns Enterococcus faecalis ATCC 29212.
Test [3] concerns Pseudomonas aeruginosa ATCC 27853.
The test system of test [4] is Candida albicans ATCC 900280.
Test [5] deals with Peptostreptococcus anaerobius.
Test [6] deals with Staphylococcus epidermidis RP62A.
Test [7] concerns Fusobacterium varium ATCC 27725.
The test system of test [8] is Staphylococcus aureus NCTC 8325.
For test [9], the system named is Staphylococcus aureus ATCC 25923.
The test system of test [10] is Salmonella enterica subsp. enterica serovar Typhimurium LT2.
Test [11] has as its system Klebsiella pneumoniae KK3 9904.
Test [12] deals with Cutibacterium acnes ATCC 11828.
In test [13] the test system is Clostridium perfringens ATCC 10543.
Test [14] concerns Prevotella melaninogenica.
Test [15] deals with Proteus mirabilis ATCC 25933.
Test [16] concerns Candida albicans ATCC 90028.
For test [17], the system named is Peptoniphilus asaccharolyticus ATCC 29743.
Test [18] relates to Bacteroides fragilis ATCC 25285.
Test [19] has as its system Escherichia coli ATCC 25922.
Test [20] relates to Escherichia coli ATCC 25726.
In test [21] the test system is Enterobacter cloacae HNTCC 53001.
Test [22] relates to Clostridium tertium ATCC 19465.
The test system of test [23] is Staphylococcus aureus T7/5.
The subject of test [24] is Yersinia enterocolitica BCRC 13999.
Test [25] deals with Klebsiella aerogenes BCRC 10370.
Test [26] deals with Listeria monocytogenes BCRC 14845.
Test [27] deals with Streptococcus equinus BCRC 14729.
Test [28] deals with Pseudomonas aeruginosa BCRC 10944.
The test system of test [29] is Staphylococcus aureus BCRC 10780.
Test [30] relates to Enterobacter cloacae BCRC 10401.
For test [31], the system named is Vibrio alginolyticus BCRC 12829.
Test [32] concerns Vibrio anguillarum serotype O1.
For test [33], the system named is Vibrio parahaemolyticus BCRC 10806.
Test [34] deals with Staphylococcus xylosus BCRC 12930.
Test [35] relates to Staphylococcus aureus BCRC 10781.
Test [36] deals with Klebsiella oxytoca BCRC 13985.
The test system of test [37] is Escherichia coli BCRC 10675.

In brackets after ≈: the same amount, converted by molar mass. Several values for one entry are separate records, joined by “and”; a condition that tells them apart may be missing. Identical values can stand only once.

As usually defined, the MIC is the lowest concentration that inhibits growth of the organism. Regarding `CC[C@H](C)[C@H](NC(=O)CN)C(=O)N[C@@H](CCSC)C(=O)N[C@@H](CC(=O)O)C(=O)N[C@@H](CO)C(=O)N[C@H](C(=O)N[C@@H](CCCCN)C(=O)NCC(=O)N[C@@H](C)C(=O)N[C@@H](C)C(=O)N[C@@H](CCCCN)C(=O)N[C@@H](CCC(=O)O)C(=O)N[C@H](C(=O)N[C@@H](C)C(=O)NCC(=O)N[C@@H](Cc1cnc[nH]1)C(=O)N[C@@H](CC(C)C)C(=O)N[C@@H](CC(C)C)C(=O)N[C@@H](CC(=O)O)C(=O)N[C@@H](CC(N)=O)C(=O)N[C@@H](CC(C)C)C(=O)N[C@@H](CCCCN)C(=O)N[C@H]1CSSC[C@@H](C(=O)O)NC(=O)CNC(=O)[C@H]([C@@H](C)O)NC(=O)[C@H]([C@@H](C)CC)NC(=O)[C@H](CCCCN)NC1=O)[C@@H](C)CC)[C@@H](C)CC` [GIMDSIKGAAKEIAGHLLDNLKCKITGC], the minimal inhibitory concentration (MIC) in [1] was not below 50 µM.

`CC[C@H](C)[C@H](NC(=O)[C@H](CCCCN)NC(=O)[C@H](CCCCN)NC(=O)[C@H](C)NC(=O)[C@H](CC(C)C)NC(=O)[C@H](CC(N)=O)NC(=O)[C@@H](NC(=O)[C@H](CC(C)C)NC(=O)[C@@H](NC(=O)CNC(=O)[C@H](CC(C)C)NC(=O)[C@H](Cc1ccccc1)NC(=O)[C@@H](N)Cc1cnc[nH]1)[C@@H](C)O)C(C)C)C(=O)N[C@@H](CC(C)C)C(N)=O` [HFLGTLVNLAKKIL]: the minimum inhibitory concentration (MIC) was 16 µM (≈ 25.1 µg/mL) in [2]; 32 µM (≈ 50.1 µg/mL) in test [3]; 16 µM (≈ 25.1 µg/mL) in [4]; 12.5 µM (≈ 19.6 µg/mL) in test [5]; 4 µM (≈ 6.26 µg/mL) in test [6]; not below 50 µM in test [7]. Further, the MIC was 6.32 µM (≈ 9.9 µg/mL) in [8]; 8 µM (≈ 12.5 µg/mL) in [9]; not below 32 µM in test [10]; not below 32 µM in [11]; 12.5 µM (≈ 19.6 µg/mL) in the test with Clostridium septicum; 6 µM (≈ 9.4 µg/mL) in [12]. Further, the minimal inhibitory concentration (MIC) in [13] is 6 µM (≈ 9.4 µg/mL); with Bacteroides fragilis, not below 50 µM; in test [14], 12.5 µM (≈ 19.6 µg/mL); in test [15] it was not below 128 µM; in [16], ≥ 40 µM and 25 µM; in [17], 25 µM (≈ 39.1 µg/mL). Further, the MIC in test [18] was not below 50 µM; in [19], 20 µM (≈ 31.3 µg/mL); in test [20] it was not below 32 µM; in the test with Cutibacterium acnes, 6 µM (≈ 9.4 µg/mL); in test [21] it was not below 32 µM; in test [22] it was 3 µM (≈ 4.7 µg/mL). The minimum inhibitory concentration (MIC) in test [23] was 10 µM (≈ 15.7 µg/mL); against Fusobacterium nucleatum, 25 µM (≈ 39.1 µg/mL).

With `CC[C@H](C)[C@H](NC(=O)[C@H](CCCCN)NC(=O)[C@H](CCCCN)NC(=O)[C@H](C)NC(=O)[C@H](Cc1ccccc1)NC(=O)[C@@H](NC(=O)[C@H](C)NC(=O)[C@H](CC(C)C)NC(=O)[C@H](CCCCN)NC(=O)[C@H](CCCCN)NC(=O)[C@H](C)NC(=O)[C@H](C)NC(=O)[C@H](CC(N)=O)NC(=O)[C@H](C)NC(=O)CN)[C@@H](C)O)C(=O)N[C@@H](Cc1ccccc1)C(=O)N[C@H](C(=O)N[C@@H](C)C(=O)N[C@@H](Cc1ccc(O)cc1)C(=O)N[C@@H](Cc1c[nH]c2ccccc12)C(=O)O)[C@@H](C)O` [GANAAKKLATFAKKIFTAYW], the MIC in test [24] is not below 116 µM; in [25], 14.5 µM; against Streptococcus iniae, not below 58.2 µM; in test [26], not below 58.2 µM; in the test with Vibrio parahaemolyticus, 7.27 µM; in [27], not below 58.2 µM. Besides, the minimal inhibitory concentration (MIC) in [28] was 29.1 µM; against Vibrio alginolyticus it was 7.27 µM; in test [29] it was 29.1 µM; in test [30] it was 7.27 µM; in test [31] it was not below 58.2 µM; in test [32] it was 7.27 µM. Moreover, the minimal inhibitory concentration (MIC) with Lactococcus garvieae was not below 116 µM; in test [33], not below 58.2 µM; in [34], 29.1 µM; in test [35], 29.1 µM; in [36], not below 58.2 µM; in test [37], 14.5 µM. Also, the MIC against Vibrio harveyi was 7.27 µM.
